In patent US20100173931A1, “HARMINE DERIVATIVES FOR REDUCING BODY WEIGHT” (OsteoGeneX Inc., priority 2009, published 2010):

Test: Reduction of body weight with harmine in mice (intraperitoneal injection, 4 weeks)
Assay type: in vivo
Details: intraperitoneal in saline, 4 weeks (30 days), initial body weight 30 g
Description: In order to determine the effect of harmine and harmine derivatives in reducing body weight, we administered harmine to mice and tracked their body weights for 4 weeks (30 days). Harmine was solublized in saline and administered via intraperitoneal injection. Animals were weighed weekly.
Mice (6 per group) were divided into seven groups and given one of the following treatments: • 1. 5 mg harmine/kg body weight (Low) • 2. 10 mg harmine/kg body weight (Med) • 3. 20 mg harmine/kg body weight (High) • 4. Saline • 5. 3 mg/kg body weight (Positive control 2) • 6. 5 mg/kg body weight (Positive control low) • 7. 10 mg/kg body weight (Positive control high)
Even at the low dose, the animals lost more than 5% of their body weight.

Q: For `COc1ccc2c(c1)[nH]c1c(C)nccc12` [harmine], which “reduction in body weight” value (highest dose 20 mg harmine/kg body weight) is on record?
A: Its value is 6%.

Q: And the “reduction in body weight” value (low dose 5 mg harmine/kg body weight)?
A: Its value is “more than 5%”.
